Laboratory results published in patent US10183007B2, “Method of producing proanthocyanidin oligomer” (Nagasaki University, priority 2005, dated 2019).

What was measured:
[1] = DPPH radical-scavenging activity assay; assay type: biochemical; details: test concentration not given
Method: With respect to each sample, 1,1-diphenyl-2-picrylhydrazyl (DPPH) radical-scavenging activity was evaluated as follows. In a 96-hole microplate, 100 μL of DPPH solution (60 μM ethanol solution) was placed. Added thereto was 100 μL of ethanol solution of test sample or 100 μL of ethanol as control, and the mixture was gently mixed together and left standing at room temperature for 30 minutes. Then, absorbance at 520 nm was measured. The DPPH radical-scavenging activity was calculated by the following formula and 50% effective concentration (EC50) was calculated from The DPPH radical-scavenging activity value of test sample gradually diluted and its concentration. DPPH radical-scavenging activity(%)=[…] [Formula 1]
As substance to be compared with Invention Substance B, epicatechin and phloroglucinol (PL) were used. As substance to be compared with Invention Substances C to E, grape seed polyphenol polymer (GP) was used.

[2] = TEAC (Trolox Equivalent Antioxidant Capacity) method; assay type: biochemical
Method: TEAC (Trolox Equivalent Antioxidant Capacity) method is a method of relatively evaluating antioxidative strength by converting antioxidative activity of a compound into antioxidative activity of Trolox which is a α-tocopherol derivative and the method is widely employed as an index of antioxidative activity.
To 36 μL of 70 μM metmyoglobin solution, 300 μL of ABTS solution and […] of 5 mM phosphate buffered saline were added. Subsequently, sample solution or 1.25 mM Yrolox solution was added thereto and gently mixed together for 5 minutes at 0° C. After 167 μL of 450 μM hydrogen peroxide solution was added thereto and mixed for 10 seconds, reaction was allowed to proceed for 5 minutes at room temperature. Absorbance at 734 nm was measured and the absorbance ratio between the sample and the Trolox solution was calculated to serve as TEAC value of the sample against […] Trolox.
As substance to be compared with Invention Substances C to E, grape seed polyphenol polymer was used.

[3] = FIG. 8, comparison for Invention Substance B
[4] = FIG. 11, TEAC value against Trolox

SMILES	DPPH activity ([1]; FIG. 7, comparison for Invention Substance A) [%]	TEAC activity ([2]; FIG. 10, TEAC value against 1.00 mM Trolox) [mM]	DPPH activity [1, 3]	TEAC activity [2, 4] [mM]
Oc1ccc(/C=C/c2cc(O)c([C@H]3c4c(O)cc(O)cc4O[C@H](c4ccc(O)c(O)c4)[C@@H]3O)c(O)c2)cc1 [Invention Substance A, 4b-(4-resveratroyl)-(−)-epicatechin]	76.1	1.33	–	–
Oc1cc(O)c([C@H]2c3c(O)cc(O)cc3O[C@H](c3ccc(O)c(O)c3)[C@@H]2O)c(O)c1 [Invention Substance B, 4-(2-phloroglucinol)-(−)-epicatechin]	–	–	significantly high scavenging activity as compared with both of the substances	1.44
Oc1cc(O)cc(O)c1 [phloroglucinol, reference compound]	–	–	little such activity	0.52
